Experimental data published in US5885998A (priority 1998, dated 1999).

Assays:
[1] = test system: synaptosomes from the striatal area of rat brain (dopamine release); experiment: Dopamine release from striatal synaptosomes; assay type: cell-based, rat (Sprague-Dawley)
Method: Dopamine release was measured by preparing synaptosomes from the striatal area of rat brain obtained from Sprague-Dawley rats generally according to the procedures set forth by Nagy et al., J. Neurochem., Vol. 43, pp. 1114-1123 (1984). Striata from 4 rats were homogenized in 2 ml of 0.32M sucrose buffered with 5 mM HEPES (pH 7.5), using a glass-Teflon tissue grinder. The homogenate was diluted to 5 ml with additional homogenization solution and centrifuged at 1,000×g for 10 min. This procedure was repeated on the new pellet and the resulting supernatant was centrifuged at 12,000×g for 20 min. A 3 layer discontinuous Percoll gradient consisting of 16 percent, 10 percent and 7.5 percent Percoll in HEPES-buffered sucrose was made with the final pellet dispersed in the top layer. […] Using this method, 30 to 90 percent of the dopamine was taken up into the synaptosomes, as determined by scintillation counting following filtration through glass fiber filters soaked with 0.5 percent polyethyleneimine. […] After the addition of 0.2 ml of a solution containing various concentrations of ligand, the perfusate was collected into scintillation vials at 1 min. intervals and the dopamine released was quantified by scintillation counting. Peaks of radioactivity released above background were summed and the average basal release during that time was subtracted from the total.

[2] = literature report; cited from earlier work
[3] = literature report; cited from earlier work; remark: listed apart in the source

## CNCC/C=C\c1cccnc1 [Sample No. 5, (Z)-metanicotine]
[1]; release as percentage of release obtained with an equal concentration of (S)-(-)-nicotine
  Dopamine Release Emax: 88 % nicotine

## CNCC/C=C/c1cccnc1 [Sample No. 8, (E)-metanicotine]
[1]; Rattus norvegicus
  Emax: 80%

## CN1CCC[C@H]1c1cccnc1 [Sample No. C-1, (S)-(-)-nicotine]
[2]
  effect towards the treatment of various CNS disorders: positive effect towards the treatment of various CNS disorders

## CN1CCCC1c1cccnc1 (stereo not shown) [nicotine]
[3]
  potentiation of certain pharmaceutical compositions used for treatment of certain CNS disorders: potentiates the pharmacological behavior of certain pharmaceutical compositions
